Where two headings read alike, the source gives them in different places.
Experiments:
[1] = test system: human biliary-derived cultures; assay: Expansion of human biliary-derived liver cultures; assay type: cell-based; settings: 500 uM added to expansion medium (ERFHNic and ENRWFHNic)
Lgr5 = settings: Lgr5-LacZ knockin mice; for Lgr5 reporter expression in the liver: 0.8 ml/kg injection
Wnt signalling = Wnt signalling reporter (LacZ) in liver of Axin2-LacZ mice; settings: after injection
liver organoid cultures = assay: Hepatocyte differentiation of liver organoid cultures by added compounds, RT-PCR of hepatocyte markers; settings: titration, hepatocyte marker expression 7 days

Question: For `Cc1cccc(-c2nn(C(=S)Nc3ccccc3)cc2-c2ccnc3ccccc23)n1` [A83-01, 3-(6-Methyl-2-pyridinyl)-N-phenyl-4-(4-quinolinyl)-1H-pyrazole-1-carbothioamide], which “expansion of human biliary-derived cultures” value [1] is on record?
Answer: Its value is “able to expand human biliary-derived cultures”.

Question: Which results are given for `ClC(Cl)(Cl)Cl` [CC14, carbon tetrachloride]?
Answer: time of peak Lgr5 reporter expression after injury (Lgr5): 6.5 days; Lgr5 reporter expression in the liver (Lgr5): induces Lgr5 expression in the liver at sites of active regeneration; Lgr5 reporter expression in the liver (Lgr5; listed as CCL4): upregulation of Lgr5; Wnt signalling in the liver (Wnt signalling; listed as CCL4): Wnt signalling is activated

Question: How did the maximal concentration efficiency (liver organoid cultures) turn out when `C[C@H](NC(=O)Cc1cc(F)cc(F)c1)C(=O)N[C@H](C(=O)OC(C)(C)C)c1ccccc1` [DAPT] was run?
Answer: Its maximal concentration efficiency is 10 µM.

B1: R-spondin1: Wnt agonist, secreted protein of the R-spondin family; Lgr5 ligand (protein, UniProt Q2MKA7 21-263, looked up)
R-spondin-1: SRGIKGKRQRRISAEGSQACAKGCELCSEVNGCLKCSPKLFILLERNDIRQVGVCLPSCPPGYFDARNPDMNKCIKCKIEHCEACFSHNFCTKCKEGLYLHKGRCYPACPEGSSAANGTMECSSPAQCEMSEWSPWGPCSKKQQLCGFRRGSEERTRRVLHAPVGDHAACSDTKETRRCTVRRVPCPEGQKRRKGGQGRRENANRNLARKESKEAGAGSRRRKGQQQQQQQGTVGPLTSAGPA
Question: With B1 as the molecule, how does the “Wnt signalling in the liver” value (Wnt signalling) read?
Answer: Its value is “liver cells are responsive to Wnt stimulation”.

Question: And the “Wnt signalling in the liver” value (Wnt signalling; listed as R-spondin)?
Answer: The value was “upregulation of Wnt signalling expression in the liver ducts”.

Reference: patent US11034935B2, “Liver organoid, uses thereof and culture method for obtaining them” (Koninklijke Nederlandse Akademie van Wetenschappen, priority 2010, dated 2021)
